From patent publication US7153822B2, “Compositions and methods for modulating connexin hemichannels” (Wyeth, priority 2002, dated 2006)
“Also recorded” adds a separate entry of the source. Square brackets hold non-standard residues; d marks the D form. Peptide text beside a SMILES is read from it. dHyp = O=C(O)[C@H]1C[C@H](O)CN1

How the values were obtained:
[1] = system: rats subjected to myocardial infarction; assay: myocardial infarction by LAD ligation in rats, three weeks of treatment; assay type: in vivo, rat
Procedure: Male Lewis rats (300–350 g; M&B, L1. Skendsved, Denmark) were anaesthetized with a neurolept anaesthesic combination (Hypnorm® (fentanyl citrate 0.315 mg/ml and fluanisone 10 mg/ml)+midazolam (5 mg/ml)). Commercial solution of midazolam was diluted 1:2 in distilled water. Three parts of the diluted midazolam is mixed with one part hypnorm®. Anesthesia was induced by s.c. administration of 0.2 ml of this solution per 100 gram rat. When surgical anesthesia was established, an endotracheal cannula is inserted and the animal is artificially ventilated using a Harvard rodent ventilator adjusted to maintain arterial pH at 7.3–7.5 during surgery.
Doses used are shown below in Table I:
Three weeks after ligation of LAD, the rats were anesthetized with an i.p, injection of pentobarbital (50 mg/kg). The animals were placed on a heating blanket in order to maintain body temperature at 37° C. Tracheotomy was performed and the rat was ventilated with oxygen using a Harvard rodent ventilator. The ventilator was adjusted to maintain arterial pH at 7.35–7.45. PE50 catheters were placed in the femoral vein and artery for i.v. administration and arterial pressure measurements, respectively. After insertion of the femoral i.v. catheter, the animal was paralysed by i.v. administration of pancuronium, 1 mg/kg. Anaesthesia and respiratory paralysis is maintained by continuous i.v. infusion of pentobarbital (2.5 mg/kg/h) and pancuronium (1 mg/kg/h) delivered in isotonic saline (50 μl/min). A tygon catheter was inserted into the left ventricle via the right carotid artery for determination of left ventricular end-diastolic pressure. After recording of left ventricular end-diastolic pressure (LVEDP), The hearts are removed from the bodies by cutting the veins and arteries a few mm from the hearts. […]
Using a microscope with a stage that can be moved in predetermined steps, both Masson-trichrome stained slides were examined and the number of points hitting fibrous tissue (blue stained in Masson-trichrome) and normal tissue are counted. […] Infarct size was calculated as % fibrous tissue in the heart.

infarcted mice = assay: bone marrow cell transplantation after myocardial infarction (design of Orlic et al); assay type: in vivo; settings: repeated administration during the proliferation process
From the text: Myocardial infarction leads to loss of tissue and impairment of cardiac performance. The remaining myocytes are unable to reconstitute the necrotic tissue, and the post-infarcted heart deteriorates with time. Injury to a target organ is sensed by distant stem cells, which migrate to the site of damage and undergo alternate stem cell differentiation; these events promote structural and functional repair. This high degree of stem cell plasticity prompted Orlic et al (Nature 410, 701–705 (2001)) to test whether dead myocardium could be restored by transplanting bone marrow cells in infarcted mice. They sorted lineage-negative (Lin−) bone marrow cells from transgenic mice expressing enhanced green fluorescent protein by fluorescence-activated cell sorting on the basis of c-kit expression. Shortly after coronary ligation, Lin− c-kitPOS cells were injected in the contracting wall bordering the infarct. […] The developing tissue comprised proliferating myocytes and vascular structures. Their studies indicate that locally delivered bone marrow cells can generate de novo myocardium, ameliorating the outcome of coronary artery disease. […]

the receptor = assay: in situ binding and animal studies
Procedure: Compounds used in this example were made using standard solid phase Fmoc chemistry. See the prior examples. Identification was performed by mass spectrometry, and the purity, determined by RP-HPLC. […] Initial studies with compound 1 in 1 nM, 10 nM, 50 nM and 100 nM will determine whether studies with the following peptides compound 3 (H-GAG-4-Hyp-PY-NH2) and compound 4 (H-GNY-NH2) are conducted. These studies will also determine whether studies involving specific kinase inhibitors are conducted.

connexin 43 (Cx43) = assay: immunoprecipitation and immunoblot of phosphorylated connexin 43; assay type: cell-based
Procedure: H9c2 cells were seeded in 24-multi well dishes in a density of 7,900 cells/cm^2 (˜15,000 cells/well) and grown for 3 days in MEM suplemented with 10% foetal calf serum (FCS) and 1000 units penicillin/1000 μg streptomycin (pen/strep) in an atmosphere of 5% CO2 and 100% humidity at 37° C.
The labelled cells were incubated in Triton X-100 lysis buffer (˜5*10^7 cells/ml) for 1 hr at 4° C. The lysate is centrifuged 30 min at 20,000*g for 30 min. The supernatant was precleared by adding 10 ul Sepharose per 200 μl supernatant. The precleared supernatant were then added 0.5–1 μg phospho-tyrosine or phospho-serine antibodies (Sigma) and incubated for 1.5 hr at 4° C. in an orbital shaker. The antibody-complex was then captured by incubation with 50 μl of a 1:1 slurry of protein G Sepharose for 1.5 hr. Finally the complex were extensively washed with 0.1% (w/v) Triton X-100, 50 mM Tris, pH 7.4, 300 mM NaCl and 5 mM EDTA.
The complexes were loaded onto a 12% SDS gel and blotted onto a PVDF membrane. The membrane is blocked with 0.1% Tween 20, 50 mM Tris, pH 7.4, 300 mM NaCl, 5% dry milk (TBST) for minimum 2 h. The membrane was subsequently incubated with connexin 43 specific antibodies (Zymed) for 1.5 h at RT and developed with ECL+ (Amersham).

[2] = system: osteoblastic rat osteosarcoma cell lines; settings: dye transfer after Lucifer Yellow injection; cited from earlier work

For `CC(=O)N[C@H](Cc1ccc(O)cc1)C(=O)N1CCC[C@@H]1C(=O)N1C[C@@H](O)C[C@@H]1C(=O)NCC(=O)N[C@H](C)C(=O)NCC(N)=O` [Compound 1, Ac-D-Tyr-D-Pro-D-4Hyp-Gly-D-Ala-Gly-NH2] (Ac-[dY][dP][dHyp]G[dA]G-NH2), the “left ventricular end-diastolic pressure” value ([1]; either dose, three weeks) was “reduced left ventricular end-diastolic pressure”, the “heart weight-body weight ratio” value ([1]; rats, three weeks after MI) was “reduced by the two highest doses” and the “reduction of infarct size relative to vehicle treated MI rats” value ([1]; treatment for three weeks) was 20–50%. The “connexin 43 expression” value (infarcted mice) was “increase in connexin 43 expression”, the “binding to the receptor” value (the receptor) was “nano-molar range” and the “connexin 43 tyrosine phosphorylation” value (connexin 43 (Cx43); cardiomyocytes exposed for 4 h with 0, 1, 10, 50 and 100 nM) was “increase connexin 43 tyrosine phosphorylation”. For the same molecule, the “tyrosine phosphorylation of connexin 43” value (connexin 43 (Cx43); cultured H9c2 cardiomyocytes) was “phosphorylation of Cx43 tyrosine; also recorded: mediates tyrosine phosphorylation of connexin 43”, the “Ser-phosphorylation of connexin 43” value (connexin 43 (Cx43); in some experiments) was “decrease Ser-phosphorylation” and the “reversal of hypoxia-induced decrease of calcium wave propagation” value [2] was “completely reversed”.
